For this assay, the target named is T1, hPRLR (Homo sapiens, UniProt P16471).
T1 construct: T84 cells express high levels of hPRLR relative to hGHR (>1300:1); host or cells: T84 (human colon cancer), MALME-3M (human melanoma)
T1 sequence (P16471 25-622): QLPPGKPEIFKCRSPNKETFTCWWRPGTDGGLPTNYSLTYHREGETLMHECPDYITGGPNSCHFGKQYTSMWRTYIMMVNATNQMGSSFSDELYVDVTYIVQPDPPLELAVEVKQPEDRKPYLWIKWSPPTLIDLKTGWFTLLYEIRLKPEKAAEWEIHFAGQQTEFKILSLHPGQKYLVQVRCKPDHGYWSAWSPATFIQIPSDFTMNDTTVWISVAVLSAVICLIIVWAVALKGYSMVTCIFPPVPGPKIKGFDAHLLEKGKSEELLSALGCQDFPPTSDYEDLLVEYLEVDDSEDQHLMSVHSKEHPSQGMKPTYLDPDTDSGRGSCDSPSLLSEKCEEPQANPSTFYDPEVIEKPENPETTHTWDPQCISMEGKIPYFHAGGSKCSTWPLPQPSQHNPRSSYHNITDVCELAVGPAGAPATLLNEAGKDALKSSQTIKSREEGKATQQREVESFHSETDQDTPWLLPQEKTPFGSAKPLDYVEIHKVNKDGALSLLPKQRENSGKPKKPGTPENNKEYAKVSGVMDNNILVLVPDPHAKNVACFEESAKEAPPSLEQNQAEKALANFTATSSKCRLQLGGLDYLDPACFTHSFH
In words: hPRL-induced pSTAT5 in MALME-3M cells, Western blot. The assay is classed as cell-based. Conditions: 2.5 nM hPRL, 20 min, S1H concentration not given. The procedure:
SK-MEL-28, MALME-3M, and T84 cells were grown and maintained in Eagle's Minimal Essential Medium. IM9 and L cells were grown in RPMI-1640 media and Dulbecco's modified Eagle's medium, respectively. All growth media was supplemented with 10% fetal bovine serum and 1× antibiotic-antimycotic […] solution. Cells were grown at 37 °C under a 5% CO2 atmosphere in a humidified incubator, and growth media was replaced every 48 h during incubation. No hGH was present in or added to the growth media unless specifically indicated. […]
Following treatment, the cells were harvested at the indicated time points, and the total protein was extracted. […] Sample protein concentration was quantified using a Bradford assay with bovine serum albumin as the protein standard. Absorbance at 595 nm was measured using a Spectramax 250 multimode plate reader (Molecular Devices) and processed using SoftmaxPro v4.7.1 software.
Cytosolic fractions from treated cells were thawed on ice, and 80 μg protein was loaded onto polyacrylamide gels for separation by SDS-PAGE. […] Chemiluminescence signals were detected using a GelDoc (BioRad) fluorescence imager. […]
Background: In western blotting, separated proteins are transferred to a membrane and probed.

Results on one compound are retold here after publication PMC8086144, “A novel peptide antagonist of the human growth hormone receptor” (The Journal of Biological Chemistry, 2021).

The structures appear in SMILES notation.

Take `CC[C@H](C)[C@H](NC(=O)[C@H](Cc1ccc(O)cc1)NC(C)=O)C(=O)N1CCC[C@H]1C(=O)N[C@@H](CCCCN)C(=O)N[C@@H](CCC(=O)O)C(=O)N[C@@H](CCC(N)=O)C(=O)N[C@@H](CCCCN)C(=O)N[C@@H](Cc1ccc(O)cc1)C(=O)N[C@@H](CO)C(=O)N[C@@H](Cc1ccccc1)C(=O)N[C@@H](CC(C)C)C(=O)N[C@@H](CCC(N)=O)C(=O)N[C@@H](CC(N)=O)C(=O)N1CCC[C@H]1C(=O)N[C@@H](CCC(N)=O)C(=O)N[C@H](C(N)=O)[C@@H](C)O` [S1H]: the “inhibition of hPRL-induced pSTAT5” value is 49%.
